Source: PMC10905675, “INX-315, a Selective CDK2 Inhibitor, Induces Cell Cycle Arrest and Senescence in Solid Tumors” (Cancer Discovery, 2023)

Legend:
Test in all cases: SelectScreen ZLYTE
Format in all cases: biochemical
Conditions in all cases: INX-0315 at 100nM
[1] = target: T1, ABL2 (Arg) (Homo sapiens, UniProt P42684)
T1 construct: purchased Thermo Fisher Scientific SelectScreen (plus Nanosyn / Reaction Biology for CDK/cyclin lines)
Outline: (§1)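 Preset conditions throughout. Primary: 100 nmol/L INX-315, 1% DMSO. Secondary: ten doses, top 1 µmol/L, bottom 0.0495 nmol/L.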

[2] = target: T2, AMPK A2/B1/G1 (Homo sapiens, UniProt P54646)
T2 construct: purchased Thermo Fisher Scientific SelectScreen (plus Nanosyn / Reaction Biology for CDK/cyclin lines)
Outline: as §1

[3] = target: T3, CDK17/cyclin Y (Homo sapiens, UniProt Q00537)
T3 construct: purchased Thermo Fisher Scientific SelectScreen (plus Nanosyn / Reaction Biology for CDK/cyclin lines)
T3 sequence (Q00537 whole entry): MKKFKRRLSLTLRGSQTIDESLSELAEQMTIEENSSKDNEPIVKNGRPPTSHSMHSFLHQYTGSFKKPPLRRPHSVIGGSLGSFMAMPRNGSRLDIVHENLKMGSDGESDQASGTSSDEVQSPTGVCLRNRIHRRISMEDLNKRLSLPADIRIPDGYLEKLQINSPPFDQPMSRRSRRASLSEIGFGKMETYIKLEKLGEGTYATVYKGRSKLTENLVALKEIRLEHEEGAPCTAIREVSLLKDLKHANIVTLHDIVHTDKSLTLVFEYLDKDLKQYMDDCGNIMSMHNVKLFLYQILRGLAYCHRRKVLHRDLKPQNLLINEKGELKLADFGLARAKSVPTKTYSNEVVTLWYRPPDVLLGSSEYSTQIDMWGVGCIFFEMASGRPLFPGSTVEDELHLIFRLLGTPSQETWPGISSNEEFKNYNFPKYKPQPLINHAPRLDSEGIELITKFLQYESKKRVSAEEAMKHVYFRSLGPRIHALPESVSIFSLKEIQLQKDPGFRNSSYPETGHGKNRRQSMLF
T3 sequence (Q8ND76 whole entry partner): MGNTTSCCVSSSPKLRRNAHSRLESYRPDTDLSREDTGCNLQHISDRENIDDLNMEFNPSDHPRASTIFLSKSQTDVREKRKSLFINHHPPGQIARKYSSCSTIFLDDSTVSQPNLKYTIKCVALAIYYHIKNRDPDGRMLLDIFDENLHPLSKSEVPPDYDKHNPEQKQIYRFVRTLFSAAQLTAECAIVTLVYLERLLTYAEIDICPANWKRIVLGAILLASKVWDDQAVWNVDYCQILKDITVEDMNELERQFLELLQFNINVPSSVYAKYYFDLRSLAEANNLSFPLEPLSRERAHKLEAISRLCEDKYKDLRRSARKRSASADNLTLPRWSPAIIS
Outline: as §1

[4] = target: T4, CDK2/cyclin A (Homo sapiens, UniProt P24941)
T4 construct: purchased Thermo Fisher Scientific SelectScreen (plus Nanosyn / Reaction Biology for CDK/cyclin lines)
Outline: as §1

[5] = target: T5, CLK1 (Homo sapiens, UniProt P49759)
T5 construct: purchased Thermo Fisher Scientific SelectScreen (plus Nanosyn / Reaction Biology for CDK/cyclin lines)
Outline: as §1

[6] = target: T6, CSNK1D (CK1 delta) (Homo sapiens, UniProt P48730)
T6 construct: purchased Thermo Fisher Scientific SelectScreen (plus Nanosyn / Reaction Biology for CDK/cyclin lines)
Outline: as §1

[7] = target: T7, DAPK3 (ZIPK) (Homo sapiens, UniProt O43293)
T7 construct: purchased Thermo Fisher Scientific SelectScreen (plus Nanosyn / Reaction Biology for CDK/cyclin lines)
Outline: as §1

[8] = target: T8, DCAMKL1 (DCLK1) (Homo sapiens, UniProt O15075)
T8 construct: purchased Thermo Fisher Scientific SelectScreen (plus Nanosyn / Reaction Biology for CDK/cyclin lines)
Outline: as §1

[9] = target: T9, FGFR3 V555M (Homo sapiens, UniProt P22607, V555M)
T9 construct: purchased Thermo Fisher Scientific SelectScreen (plus Nanosyn / Reaction Biology for CDK/cyclin lines)
Outline: as §1

[10] = target: T10, FYN (Homo sapiens, UniProt P06241)
T10 construct: purchased Thermo Fisher Scientific SelectScreen (plus Nanosyn / Reaction Biology for CDK/cyclin lines)
Outline: as §1

[11] = target: T11, GRK4 (Homo sapiens, UniProt P32298)
T11 construct: purchased Thermo Fisher Scientific SelectScreen (plus Nanosyn / Reaction Biology for CDK/cyclin lines)
T11 sequence (P32298 whole entry): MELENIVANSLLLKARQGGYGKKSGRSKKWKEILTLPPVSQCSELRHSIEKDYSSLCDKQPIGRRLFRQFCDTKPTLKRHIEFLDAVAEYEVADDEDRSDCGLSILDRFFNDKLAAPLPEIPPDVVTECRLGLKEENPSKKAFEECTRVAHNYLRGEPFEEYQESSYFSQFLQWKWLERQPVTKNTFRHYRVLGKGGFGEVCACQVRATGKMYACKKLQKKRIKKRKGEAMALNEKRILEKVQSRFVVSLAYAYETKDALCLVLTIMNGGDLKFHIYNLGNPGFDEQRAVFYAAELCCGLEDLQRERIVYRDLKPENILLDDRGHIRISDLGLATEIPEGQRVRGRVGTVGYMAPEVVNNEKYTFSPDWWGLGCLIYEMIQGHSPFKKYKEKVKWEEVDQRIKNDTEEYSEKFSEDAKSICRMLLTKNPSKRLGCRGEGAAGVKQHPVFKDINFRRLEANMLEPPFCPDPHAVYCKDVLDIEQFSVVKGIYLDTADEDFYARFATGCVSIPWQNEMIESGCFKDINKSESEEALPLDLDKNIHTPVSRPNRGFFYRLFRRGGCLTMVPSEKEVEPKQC
Outline: as §1

[12] = target: T12, HIPK3 (YAK1) (Homo sapiens, UniProt Q9H422)
T12 construct: purchased Thermo Fisher Scientific SelectScreen (plus Nanosyn / Reaction Biology for CDK/cyclin lines)
Outline: as §1

[13] = target: T13, JAK3 (Homo sapiens, UniProt P52333)
T13 construct: purchased Thermo Fisher Scientific SelectScreen (plus Nanosyn / Reaction Biology for CDK/cyclin lines)
Outline: as §1

[14] = target: T14, MAP4K2 (GCK) (Homo sapiens, UniProt Q12851)
T14 construct: purchased Thermo Fisher Scientific SelectScreen (plus Nanosyn / Reaction Biology for CDK/cyclin lines)
Outline: as §1

[15] = target: T15, MAPK1 (ERK2) (Homo sapiens, UniProt P28482)
T15 construct: purchased Thermo Fisher Scientific SelectScreen (plus Nanosyn / Reaction Biology for CDK/cyclin lines)
Outline: as §1

[16] = target: T16, MAPK11 (p38 beta) (Homo sapiens, UniProt Q15759)
T16 construct: purchased Thermo Fisher Scientific SelectScreen (plus Nanosyn / Reaction Biology for CDK/cyclin lines)
Outline: as §1

[17] = target: T17, MAPK8 (JNK1) (Homo sapiens, UniProt P45983)
T17 construct: purchased Thermo Fisher Scientific SelectScreen (plus Nanosyn / Reaction Biology for CDK/cyclin lines)
Outline: as §1

[18] = target: T18, MAPK9 (JNK2) (Homo sapiens, UniProt P45984)
T18 construct: purchased Thermo Fisher Scientific SelectScreen (plus Nanosyn / Reaction Biology for CDK/cyclin lines)
Outline: as §1

[19] = target: T19, MAPKAPK2 (Homo sapiens, UniProt P49137)
T19 construct: purchased Thermo Fisher Scientific SelectScreen (plus Nanosyn / Reaction Biology for CDK/cyclin lines)
Outline: as §1

[20] = target: T20, MATK (HYL) (Homo sapiens, UniProt P42679)
T20 construct: purchased Thermo Fisher Scientific SelectScreen (plus Nanosyn / Reaction Biology for CDK/cyclin lines)
Outline: as §1

[21] = target: T21, NEK4 (Homo sapiens, UniProt P51957)
T21 construct: purchased Thermo Fisher Scientific SelectScreen (plus Nanosyn / Reaction Biology for CDK/cyclin lines)
Outline: as §1

[22] = target: T22, NEK6 (Homo sapiens, UniProt Q9HC98)
T22 construct: purchased Thermo Fisher Scientific SelectScreen (plus Nanosyn / Reaction Biology for CDK/cyclin lines)
Outline: as §1

[23] = target: T23, PAK1 (Homo sapiens, UniProt Q13153)
T23 construct: purchased Thermo Fisher Scientific SelectScreen (plus Nanosyn / Reaction Biology for CDK/cyclin lines)
T23 sequence (Q13153 whole entry): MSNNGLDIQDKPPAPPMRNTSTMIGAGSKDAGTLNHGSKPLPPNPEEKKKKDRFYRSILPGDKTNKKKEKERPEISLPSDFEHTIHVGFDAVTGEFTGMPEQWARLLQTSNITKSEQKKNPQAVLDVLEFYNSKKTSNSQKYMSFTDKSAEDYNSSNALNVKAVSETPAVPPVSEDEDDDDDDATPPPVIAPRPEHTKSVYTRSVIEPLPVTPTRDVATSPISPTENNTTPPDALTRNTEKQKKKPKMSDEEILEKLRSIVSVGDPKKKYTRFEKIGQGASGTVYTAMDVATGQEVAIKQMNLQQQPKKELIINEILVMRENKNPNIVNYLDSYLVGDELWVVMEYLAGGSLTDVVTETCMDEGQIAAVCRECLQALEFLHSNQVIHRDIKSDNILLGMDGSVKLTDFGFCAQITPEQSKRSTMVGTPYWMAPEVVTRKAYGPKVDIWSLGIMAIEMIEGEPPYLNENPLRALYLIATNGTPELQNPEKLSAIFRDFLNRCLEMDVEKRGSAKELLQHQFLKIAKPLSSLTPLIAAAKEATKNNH
Outline: as §1

[24] = target: T24, PASK (Homo sapiens, UniProt Q96RG2)
T24 construct: purchased Thermo Fisher Scientific SelectScreen (plus Nanosyn / Reaction Biology for CDK/cyclin lines)
T24 sequence (Q96RG2 whole entry): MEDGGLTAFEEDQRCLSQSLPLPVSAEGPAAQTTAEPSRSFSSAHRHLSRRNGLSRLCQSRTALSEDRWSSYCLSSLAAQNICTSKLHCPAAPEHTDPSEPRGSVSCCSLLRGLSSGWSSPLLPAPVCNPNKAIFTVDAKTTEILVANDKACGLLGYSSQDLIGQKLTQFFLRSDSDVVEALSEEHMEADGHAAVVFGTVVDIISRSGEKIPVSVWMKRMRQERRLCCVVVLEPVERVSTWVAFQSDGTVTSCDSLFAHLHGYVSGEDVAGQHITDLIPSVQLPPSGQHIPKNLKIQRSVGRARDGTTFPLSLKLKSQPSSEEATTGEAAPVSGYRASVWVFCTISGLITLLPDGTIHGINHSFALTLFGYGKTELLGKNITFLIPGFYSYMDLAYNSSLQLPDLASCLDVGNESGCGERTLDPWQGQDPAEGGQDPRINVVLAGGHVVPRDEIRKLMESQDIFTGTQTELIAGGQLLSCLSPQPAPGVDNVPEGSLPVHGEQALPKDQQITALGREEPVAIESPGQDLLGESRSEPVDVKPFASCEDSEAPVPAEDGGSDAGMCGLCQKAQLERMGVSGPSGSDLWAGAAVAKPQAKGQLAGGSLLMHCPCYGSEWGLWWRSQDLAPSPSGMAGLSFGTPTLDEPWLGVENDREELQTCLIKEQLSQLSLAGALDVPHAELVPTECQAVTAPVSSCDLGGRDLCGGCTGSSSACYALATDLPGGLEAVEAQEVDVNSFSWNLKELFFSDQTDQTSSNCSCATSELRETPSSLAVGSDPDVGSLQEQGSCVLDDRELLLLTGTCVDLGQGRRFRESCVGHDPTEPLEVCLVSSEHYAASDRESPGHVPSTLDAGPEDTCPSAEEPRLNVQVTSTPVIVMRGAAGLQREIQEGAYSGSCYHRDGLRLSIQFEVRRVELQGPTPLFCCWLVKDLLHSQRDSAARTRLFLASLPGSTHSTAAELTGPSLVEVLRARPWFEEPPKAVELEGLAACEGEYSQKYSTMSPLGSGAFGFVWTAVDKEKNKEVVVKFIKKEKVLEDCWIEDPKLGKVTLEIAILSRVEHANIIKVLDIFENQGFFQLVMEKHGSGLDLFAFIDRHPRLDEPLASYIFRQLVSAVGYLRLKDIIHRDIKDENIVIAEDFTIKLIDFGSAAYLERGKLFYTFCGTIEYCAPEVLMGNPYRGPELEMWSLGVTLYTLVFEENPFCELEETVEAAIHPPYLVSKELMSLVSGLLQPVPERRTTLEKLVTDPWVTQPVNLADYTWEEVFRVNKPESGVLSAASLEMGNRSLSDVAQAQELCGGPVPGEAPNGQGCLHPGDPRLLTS
Outline: as §1

[25] = target: T25, PHKG2 (Homo sapiens, UniProt P15735)
T25 construct: purchased Thermo Fisher Scientific SelectScreen (plus Nanosyn / Reaction Biology for CDK/cyclin lines)
Outline: as §1

[26] = target: T26, PLK2 (Homo sapiens, UniProt Q9NYY3)
T26 construct: purchased Thermo Fisher Scientific SelectScreen (plus Nanosyn / Reaction Biology for CDK/cyclin lines)
T26 sequence (Q9NYY3 whole entry): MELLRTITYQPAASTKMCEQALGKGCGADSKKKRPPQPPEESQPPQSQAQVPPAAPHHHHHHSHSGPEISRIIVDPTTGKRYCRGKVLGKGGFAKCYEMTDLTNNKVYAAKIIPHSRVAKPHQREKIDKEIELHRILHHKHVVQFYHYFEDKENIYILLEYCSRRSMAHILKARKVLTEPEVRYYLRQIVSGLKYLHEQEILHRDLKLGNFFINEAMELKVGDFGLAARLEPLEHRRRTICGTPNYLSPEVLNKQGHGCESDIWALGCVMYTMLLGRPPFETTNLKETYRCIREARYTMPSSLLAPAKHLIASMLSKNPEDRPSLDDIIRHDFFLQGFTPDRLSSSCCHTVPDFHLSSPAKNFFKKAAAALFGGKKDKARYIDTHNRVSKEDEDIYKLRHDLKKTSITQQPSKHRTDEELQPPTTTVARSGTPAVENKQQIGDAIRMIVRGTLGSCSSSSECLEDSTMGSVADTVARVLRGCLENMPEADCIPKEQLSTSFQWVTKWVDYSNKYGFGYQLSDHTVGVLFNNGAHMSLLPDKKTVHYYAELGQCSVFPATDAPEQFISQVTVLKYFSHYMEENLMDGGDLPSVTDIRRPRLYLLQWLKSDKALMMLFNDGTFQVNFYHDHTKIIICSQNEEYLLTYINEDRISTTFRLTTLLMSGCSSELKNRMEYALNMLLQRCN
Outline: as §1

[27] = target: T27, PRKCB2 (PKC beta II) (Homo sapiens, UniProt P05771)
T27 construct: purchased Thermo Fisher Scientific SelectScreen (plus Nanosyn / Reaction Biology for CDK/cyclin lines)
Outline: as §1

[28] = target: T28, PTK6 (Brk) (Homo sapiens, UniProt Q13882)
T28 construct: purchased Thermo Fisher Scientific SelectScreen (plus Nanosyn / Reaction Biology for CDK/cyclin lines)
Outline: as §1

[29] = target: T29, RAF1 (cRAF) Y340D Y341D (Homo sapiens, UniProt P04049, Y340D/Y341D)
T29 construct: purchased Thermo Fisher Scientific SelectScreen (plus Nanosyn / Reaction Biology for CDK/cyclin lines)
T29 sequence (P04049 whole entry Y340D/Y341D): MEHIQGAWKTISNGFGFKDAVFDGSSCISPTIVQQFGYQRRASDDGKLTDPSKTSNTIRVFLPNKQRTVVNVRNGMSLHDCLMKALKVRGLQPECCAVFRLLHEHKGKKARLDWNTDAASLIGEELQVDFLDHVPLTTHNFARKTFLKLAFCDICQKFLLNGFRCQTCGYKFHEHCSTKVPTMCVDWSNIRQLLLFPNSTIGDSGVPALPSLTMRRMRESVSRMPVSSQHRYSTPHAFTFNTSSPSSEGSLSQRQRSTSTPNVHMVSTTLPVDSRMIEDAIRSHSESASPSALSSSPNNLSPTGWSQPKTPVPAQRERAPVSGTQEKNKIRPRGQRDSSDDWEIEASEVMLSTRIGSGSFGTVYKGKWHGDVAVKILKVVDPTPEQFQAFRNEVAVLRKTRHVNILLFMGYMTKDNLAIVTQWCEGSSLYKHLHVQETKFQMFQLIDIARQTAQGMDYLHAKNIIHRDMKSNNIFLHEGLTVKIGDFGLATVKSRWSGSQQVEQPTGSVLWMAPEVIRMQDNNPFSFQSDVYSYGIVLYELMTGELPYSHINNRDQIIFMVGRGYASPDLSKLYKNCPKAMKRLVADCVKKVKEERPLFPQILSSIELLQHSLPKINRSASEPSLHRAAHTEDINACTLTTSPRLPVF
Outline: as §1

[30] = target: T30, RET V804E (Homo sapiens, UniProt P07949, V804E)
T30 construct: purchased Thermo Fisher Scientific SelectScreen (plus Nanosyn / Reaction Biology for CDK/cyclin lines)
Outline: as §1

[31] = target: T31, RPS6KA2 (RSK3) (Homo sapiens, UniProt Q15349)
T31 construct: purchased Thermo Fisher Scientific SelectScreen (plus Nanosyn / Reaction Biology for CDK/cyclin lines)
Outline: as §1

[32] = target: T32, RPS6KA6 (RSK4) (Homo sapiens, UniProt Q9UK32)
T32 construct: purchased Thermo Fisher Scientific SelectScreen (plus Nanosyn / Reaction Biology for CDK/cyclin lines)
Outline: as §1

[33] = target: T33, SRPK1 (Homo sapiens, UniProt Q96SB4)
T33 construct: purchased Thermo Fisher Scientific SelectScreen (plus Nanosyn / Reaction Biology for CDK/cyclin lines)
Outline: as §1

[34] = target: T34, SRPK2 (Homo sapiens, UniProt P78362)
T34 construct: purchased Thermo Fisher Scientific SelectScreen (plus Nanosyn / Reaction Biology for CDK/cyclin lines)
Outline: as §1

[35] = target: T35, STK22B (TSSK2) (Homo sapiens, UniProt Q96PF2)
T35 construct: purchased Thermo Fisher Scientific SelectScreen (plus Nanosyn / Reaction Biology for CDK/cyclin lines)
T35 sequence (Q96PF2 whole entry): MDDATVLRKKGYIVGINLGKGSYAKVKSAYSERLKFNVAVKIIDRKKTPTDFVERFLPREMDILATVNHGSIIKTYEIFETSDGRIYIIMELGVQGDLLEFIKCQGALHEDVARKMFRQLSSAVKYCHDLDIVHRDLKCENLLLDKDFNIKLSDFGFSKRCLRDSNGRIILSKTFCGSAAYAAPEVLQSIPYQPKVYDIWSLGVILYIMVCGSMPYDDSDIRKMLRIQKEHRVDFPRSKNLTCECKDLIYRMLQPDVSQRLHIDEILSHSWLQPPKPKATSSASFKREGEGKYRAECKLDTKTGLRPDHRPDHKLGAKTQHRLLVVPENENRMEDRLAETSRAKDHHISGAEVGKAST
Outline: as §1

[36] = target: T36, STK24 (MST3) (Homo sapiens, UniProt Q9Y6E0)
T36 construct: purchased Thermo Fisher Scientific SelectScreen (plus Nanosyn / Reaction Biology for CDK/cyclin lines)
Outline: as §1

[37] = target: T37, SYK (Homo sapiens, UniProt P43405)
T37 construct: purchased Thermo Fisher Scientific SelectScreen (plus Nanosyn / Reaction Biology for CDK/cyclin lines)
Outline: as §1

## NS(=O)(=O)c1ccc(Nc2ncc3cc4n(c3n2)C2(CCCCC2)C(=O)NN4)cc1 [INX-315]
[1]
  inhibition at 0.1 µM: 14%
[2]
  inhibition at 0.1 µM: 5%
[3]
  inhibition at 0.1 µM: 20%
[4]
  inhibition at 0.1 µM: 100%
[5]
  inhibition at 0.1 µM: 5%
[6]
  inhibition at 0.1 µM: 0%
[7]
  inhibition at 0.1 µM: 6%
[8]
  inhibition at 0.1 µM: 9%
[9]
  inhibition at 0.1 µM: 21%
[10]
  inhibition at 0.1 µM: 4%
[11]
  inhibition at 0.1 µM: 31%
[12]
  inhibition at 0.1 µM: 4%
[13]
  inhibition at 0.1 µM: 24%
[14]
  inhibition at 0.1 µM: 0%
[15]
  inhibition at 0.1 µM: 4%
[16]
  inhibition at 0.1 µM: 7%
[17]
  inhibition at 0.1 µM: 6%
[18]
  inhibition at 0.1 µM: -1%
[19]
  inhibition at 0.1 µM: 3%
[20]
  inhibition at 0.1 µM: 6%
[21]
  inhibition at 0.1 µM: 15%
[22]
  inhibition at 0.1 µM: 1%
[23]
  inhibition at 0.1 µM: 6%
[24]
  inhibition at 0.1 µM: 2%
[25]
  inhibition at 0.1 µM: 2%
[26]
  inhibition at 0.1 µM: 5%
[27]
  inhibition at 0.1 µM: 13%
[28]
  inhibition at 0.1 µM: -1%
[29]
  inhibition at 0.1 µM: 5%
[30]
  inhibition at 0.1 µM: 13%
[31]
  inhibition at 0.1 µM: 24%
[32]
  inhibition at 0.1 µM: 56%
[33]
  inhibition at 0.1 µM: 7%
[34]
  inhibition at 0.1 µM: 2%
[35]
  inhibition at 0.1 µM: -2%
[36]
  inhibition at 0.1 µM: 11%
[37]
  inhibition at 0.1 µM: 8%
